Results: patent publication US11396502B2, “Substituted heterocyclic derivatives as PI3K inhibitors” (Incyte Corporation, priority 2018, dated 2022)
Counter-ions that a name gives are not always drawn. Like-named read-outs stand apart in the source and are kept apart here.

What was measured:
PI3Kδ (p110δ/p85α) = PI3Kδ (p110δ/p85α) (Homo sapiens (Human), UniProt O00329); assay: PI3Kδ scintillation proximity assay; format: biochemical; settings: recombinant human PI3Kδ 3.4 nM, 20 μM PIP2, 2 μM ATP, 120 min, room temperature
Excerpt: Example C. PI3Kδ Scintillation Proximity Assay Materials: [γ-^33P]ATP (10 mCi/mL) and Wheat Germ Agglutinin (WGA) YSi SPA Scintillation Beads was purchased from Perkin Elmer (Waltham, Mass.). Lipid kinase substrate, D-myo-Phosphatidylinositol 4,5-bisphosphate (PtdIns(4,5)P2)D (+)-sn-1,2-di-O-octanoylglyceryl, 3-O-phospho linked (PIP2), CAS 204858-53-7, was purchased from Echelon Biosciences (Salt Lake City, Utah). PI3Kδ (p110δ/p85α) Recombinant Human Protein was purchased from Eurofins (St Charles, Mo.). ATP, MgCl2, DTT, EDTA, MOPS and CHAPS were purchased from Sigma Aldrich (St. Louis, Mo.). The kinase reaction was conducted in polystyrene 384-well Greiner Bio-one white plate from Thermo Fisher Scientific in a final volume of 25 μL. Inhibitors were first diluted serially in DMSO and added to the plate wells before the addition of other reaction components. The final concentration of DMSO in the assay was 2%. The PI3Kδ assay was carried out at room temperature in 20 mM MOPS, pH 6.7, 10 mM MgCl2, 5 mM DTT and CHAPS 0.03%. Reactions were initiated by the addition of ATP, the final reaction mixture consisted of 20 μM PIP2, 2 μM ATP, 0.5 μCi [γ-^33P] ATP, 3.4 nM PI3Kδ. Reactions were incubated for 120 min and terminated by the addition of 40 μL SPA beads suspended in quench buffer: 163 mM potassium phosphate pH 7.8, 20% glycerol, 25 mM EDTA. The final concentration of SPA beads is 1.0 mg/mL. After the plate sealing, plates were shaken overnight at room temperature and centrifuged at 1500 rpm for 10 min, the radioactivity of the product was determined by scintillation counting on Topcount (PerkinElmer). IC50 determination was performed by fitting the curve of percent of the solvent control activity versus the log of the inhibitor concentration using the GraphPad Prism 6.0 software.

PI3Kγ (p110γ) = PI3Kγ (p110γ) (Homo sapiens (Human), UniProt P48736); assay: PI3K-γ scintillation proximity assay; format: biochemical; settings: recombinant human PI3Kγ 13 nM, 20 μM PIP2, 2 μM ATP, 120 min, room temperature
Excerpt: Example B. PI3K-γ Scintillation Proximity Assay Materials: [γ-^33P]ATP (10 mCi/mL) and Wheat Germ Agglutinin (WGA) YSi SPA Scintillation Beads was purchased from Perkin Elmer (Waltham, Mass.). Lipid kinase substrate, D-myo-Phosphatidylinositol 4,5-bisphosphate (PtdIns(4,5)P2)D (+)-sn-1,2-di-O-octanoylglyceryl, 3-O-phospho linked (PIP2), CAS 204858-53-7, was purchased from Echelon Biosciences (Salt Lake City, Utah). PI3Kγ (p110γ) Recombinant Human Protein was purchased from Life technology (Grand Island, N.Y.). ATP, MgCl2, DTT, EDTA, MOPS and CHAPS were purchased from Sigma Aldrich (St. Louis, Mo.). The kinase reaction was conducted in polystyrene 384-well Greiner Bio-one white plate from Thermo Fisher Scientific in a final volume of 25 μL. Inhibitors were first diluted serially in DMSO and added to the plate wells before the addition of other reaction components. The final concentration of DMSO in the assay was 2%. The PI3Kγ assay was carried out at room temperature in 20 mM MOPS, pH 6.7, 10 mM MgCl2, 5 mM DTT and CHAPS 0.03%. Reactions were initiated by the addition of ATP, the final reaction mixture consisted of 20 μM PIP2, 2 μM ATP, 0.5 μCi [γ-^33P] ATP, 13 nM PI3Kγ. Reactions were incubated for 120 min and terminated by the addition of 40 μL SPA beads suspended in quench buffer: 163 mM potassium phosphate pH 7.8, 20% glycerol, 25 mM EDTA. The final concentration of SPA beads is 1.0 mg/mL. After the plate sealing, plates were shaken overnight at room temperature and centrifuged at 1500 rpm for 10 min, the radioactivity of the product was determined by scintillation counting on Topcount (Perkin-Elmer). IC50 determination was performed by fitting the curve of percent of the solvent control activity versus the log of the inhibitor concentration using the GraphPad Prism 6.0 software.

[1] = tested on: Phosphorylated Ribosomal Protein S6 (RPS6) in THP-1 cells; assay: THP-1 RPS6 ELISA assay; format: cell-based, Human; settings: 2 hours compound, 10 nM MCP-1 for 15 minutes, Phospho-RPS6 ELISA, read-out: PI3Kγ_THP1_RPS6_ELISA IC50
Method: Example A. THP-1 RPS6 ELISA Assay
To measure the Phosphorylated Ribosomal Protein S6 (RPS6) in cell lysates, THP-1 cells (Human Acute Monocytic Leukemia) are purchased from ATCC (Manassas, Va.) and maintained in RPMI with 10% FBS (Gibco/Life Technologies, Carlsbad, Calif.). For the assay, THP-1 cells are serum starved overnight in RPMI, then plated in RPMI (2×10^5 cells/well in 90 μL) into 96-well flat-bottom tissue culture treated plates (Corning, Corning, N.Y.), in the presence or absence of a concentration range of test compounds. Covered plates are incubated for 2 hours at 37° C., 5% CO2 then treated with or without 10 nM MCP-1 (MYBioSource, San Diego, Calif.) for 15 minutes at 37° C., 5% CO2. Plates are centrifuged at 1600 RPM and supernatants are removed. Cells are lysed in Lysis Buffer (Cell Signaling, Danvers, Mass.) with Protease Inhibitor (Calbiochem/EMD, Germany), PMSF (Sigma, St Louis Mo.), HALTS (Thermo Fisher, Rockford, Ill.) for 30 min on wet ice. Cell lysates are frozen at −80° C. before testing. The lysates are tested in the Human/Mouse/Rat Phospho-RPS6 ELISA (R&D Systems, Inc. Minn, Minn.). The plate is measured using a microplate reader (SpectraMax M5—Molecular Devices, LLC Sunnyvale, Calif.) set to 450 nm with a wavelength correction of 540. IC50 determination is performed by fitting the curve of inhibitor percent inhibition versus the log of the inhibitor concentration using the GraphPad Prism 5.0 software.

[2] = Homo sapiens, THP-1, serum starved THP-1 cells

Chain of PI3Kδ (p110δ/p85α) (O00329 whole entry): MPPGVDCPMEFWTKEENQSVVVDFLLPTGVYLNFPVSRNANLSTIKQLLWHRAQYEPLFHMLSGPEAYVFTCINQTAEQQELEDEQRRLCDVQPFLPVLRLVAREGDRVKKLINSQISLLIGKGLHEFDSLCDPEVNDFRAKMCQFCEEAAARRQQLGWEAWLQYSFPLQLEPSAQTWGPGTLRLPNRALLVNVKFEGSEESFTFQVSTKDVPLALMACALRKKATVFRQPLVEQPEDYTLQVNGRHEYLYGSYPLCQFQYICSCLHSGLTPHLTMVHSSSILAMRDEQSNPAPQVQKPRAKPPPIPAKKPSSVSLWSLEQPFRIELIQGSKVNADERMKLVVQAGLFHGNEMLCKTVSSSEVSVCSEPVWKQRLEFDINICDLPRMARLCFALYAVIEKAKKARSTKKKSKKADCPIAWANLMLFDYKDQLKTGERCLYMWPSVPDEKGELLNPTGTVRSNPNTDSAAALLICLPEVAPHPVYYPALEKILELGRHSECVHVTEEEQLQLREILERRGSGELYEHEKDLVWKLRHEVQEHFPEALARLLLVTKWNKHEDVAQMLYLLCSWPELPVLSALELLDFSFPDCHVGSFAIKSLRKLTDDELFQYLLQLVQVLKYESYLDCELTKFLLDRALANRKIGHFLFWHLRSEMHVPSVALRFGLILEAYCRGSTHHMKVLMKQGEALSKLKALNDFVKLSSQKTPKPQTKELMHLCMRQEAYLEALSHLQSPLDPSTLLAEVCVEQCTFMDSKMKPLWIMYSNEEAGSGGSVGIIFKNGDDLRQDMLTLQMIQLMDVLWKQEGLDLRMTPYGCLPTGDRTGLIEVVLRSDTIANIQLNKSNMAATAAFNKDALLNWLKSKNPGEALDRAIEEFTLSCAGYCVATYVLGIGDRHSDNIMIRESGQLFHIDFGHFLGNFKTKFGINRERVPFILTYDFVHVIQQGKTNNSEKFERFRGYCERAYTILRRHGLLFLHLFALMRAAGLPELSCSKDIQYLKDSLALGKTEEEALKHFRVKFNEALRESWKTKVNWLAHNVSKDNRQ
Chain of PI3Kδ (p110δ/p85α) (P27986 whole entry partner): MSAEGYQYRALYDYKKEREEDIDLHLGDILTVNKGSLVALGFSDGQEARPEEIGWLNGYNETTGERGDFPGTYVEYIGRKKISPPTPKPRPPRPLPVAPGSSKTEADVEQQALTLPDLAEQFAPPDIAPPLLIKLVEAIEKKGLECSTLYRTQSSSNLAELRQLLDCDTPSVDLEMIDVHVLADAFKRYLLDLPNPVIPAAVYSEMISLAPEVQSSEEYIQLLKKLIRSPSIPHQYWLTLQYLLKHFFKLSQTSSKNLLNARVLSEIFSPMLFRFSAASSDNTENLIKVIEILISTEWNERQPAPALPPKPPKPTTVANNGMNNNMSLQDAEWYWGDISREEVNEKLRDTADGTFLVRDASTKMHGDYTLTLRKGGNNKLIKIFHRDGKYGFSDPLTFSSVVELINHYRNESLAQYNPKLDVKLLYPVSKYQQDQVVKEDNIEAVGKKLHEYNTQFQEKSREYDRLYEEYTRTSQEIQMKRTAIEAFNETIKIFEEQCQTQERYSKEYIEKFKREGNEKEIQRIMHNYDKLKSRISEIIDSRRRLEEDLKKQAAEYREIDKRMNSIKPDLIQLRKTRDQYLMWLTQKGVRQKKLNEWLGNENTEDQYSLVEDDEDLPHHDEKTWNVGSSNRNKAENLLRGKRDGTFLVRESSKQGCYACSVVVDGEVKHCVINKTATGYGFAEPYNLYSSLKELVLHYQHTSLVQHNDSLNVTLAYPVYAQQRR
Chain of PI3Kγ (p110γ) (P48736 whole entry): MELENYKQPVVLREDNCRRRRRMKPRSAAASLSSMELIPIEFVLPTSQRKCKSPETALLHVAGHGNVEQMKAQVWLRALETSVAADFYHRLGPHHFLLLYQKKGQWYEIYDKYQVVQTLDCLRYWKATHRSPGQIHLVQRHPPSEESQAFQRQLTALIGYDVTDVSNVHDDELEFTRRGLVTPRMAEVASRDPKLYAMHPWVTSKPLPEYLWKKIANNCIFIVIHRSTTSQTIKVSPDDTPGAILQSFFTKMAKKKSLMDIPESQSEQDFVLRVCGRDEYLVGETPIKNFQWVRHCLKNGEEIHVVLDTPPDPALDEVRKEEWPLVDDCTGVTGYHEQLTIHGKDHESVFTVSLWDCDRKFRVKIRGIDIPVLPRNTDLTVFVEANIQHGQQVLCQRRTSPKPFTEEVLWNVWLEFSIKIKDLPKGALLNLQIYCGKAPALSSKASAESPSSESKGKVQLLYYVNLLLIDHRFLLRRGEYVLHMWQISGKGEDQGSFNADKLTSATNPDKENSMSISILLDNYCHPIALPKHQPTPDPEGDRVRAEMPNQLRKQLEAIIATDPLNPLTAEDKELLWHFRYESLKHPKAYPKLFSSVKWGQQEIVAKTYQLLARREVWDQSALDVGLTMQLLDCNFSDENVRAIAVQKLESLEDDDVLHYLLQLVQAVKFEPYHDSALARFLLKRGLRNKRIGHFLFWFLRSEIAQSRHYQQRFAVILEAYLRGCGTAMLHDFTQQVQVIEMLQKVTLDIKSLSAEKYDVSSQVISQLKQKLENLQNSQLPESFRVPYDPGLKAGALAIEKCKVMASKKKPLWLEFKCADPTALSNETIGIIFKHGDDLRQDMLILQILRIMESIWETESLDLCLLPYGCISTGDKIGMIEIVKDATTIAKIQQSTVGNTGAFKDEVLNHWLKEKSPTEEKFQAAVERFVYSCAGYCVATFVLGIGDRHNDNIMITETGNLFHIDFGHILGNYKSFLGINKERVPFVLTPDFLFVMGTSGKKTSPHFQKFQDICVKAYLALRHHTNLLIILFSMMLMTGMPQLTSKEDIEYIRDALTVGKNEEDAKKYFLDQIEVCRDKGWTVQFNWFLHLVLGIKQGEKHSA

Row | IC50 (PI3Kδ (p110δ/p85α)) [nM] | IC50 (PI3Kγ (p110γ)) [nM] | IC50 [1, 2] [nM] | SMILES | IC50 ([1]; serum starved THP-1 cells) [nM]
1 | 100 to 500 | < 100 | > 1000 | Cc1[nH]c(-c2cc(-c3cc4c(c(S(C)(=O)=O)c3)C(=O)N([C@@H](C)C3CC3)C4)ccn2)nc1C(=O)NC1CC(O)C1 (mixture of isomers) [Example 7f, (S)-2-(4-(2-(1-Cyclopropylethyl)-7-(methylsulfonyl)-1-oxoisoindolin-5-yl)pyridin-2-yl)-N-(3-hydroxycyclobutyl)-4-methyl-1H-imidazole-5-carboxamide, trifluoroacetate salt (mixture of two diastereomers)] | 
2 | 100 to 500 | < 100 | 100 to 500 | Cc1[nH]c(-c2cc(-c3cc4c(c(S(C)(=O)=O)c3)C(=O)N([C@@H](C)C3CC3)C4)ccn2)nc1C(=O)NC1CCOC1 (mixture of isomers) [Example 7n, 2-(4-(2-((S)-1-Cyclopropylethyl)-7-(methylsulfonyl)-1-oxoisoindolin-5-yl)pyridin-2-yl)-4-methyl-N-(tetrahydrofuran-3-yl)-1H-imidazole-5-carboxamide, trifluoroacetate salt (mixture of two diastereomers)] | 
3 | 500 to 2000 | < 100 | 500 to 1000 | Cc1nc(-c2cc(-c3cc4c(c(S(C)(=N)=O)c3)C(=O)N([C@@H](C)C3CC3)C4)ccn2)[nH]c1C (single isomer, unassigned) [Example 22] | 
4 | 500 to 2000 | < 100 | 500 to 1000 | CN=S(C)(=O)c1cc(-c2ccnc(-c3nc(C)c(C)[nH]3)c2)cc2c1C(=O)N([C@@H](C)C1CC1)C2 (single isomer, unassigned) [Example 25] | 
5 | > 2000 | < 100 | > 1000 | Cc1cnc(-c2cc(-c3cc4c(c(N=S(C)(C)=O)c3)C(=O)N([C@@H](C)C3CC3)C4)ccn2)[nH]1 (single isomer, unassigned) [Example 26] | 
6 | 100 to 500 | < 100 | 500 to 1000 | Cc1nc(-c2cc(-c3cc(Cl)c4c(c3)CN([C@@H](C)C3CC3)C4=O)ccn2)[nH]c1C [Example 1, (S)-7-Chloro-2-(1-cyclopropylethyl)-5-(2-(4,5-dimethyl-1H-imidazol-2-yl)pyridin-4-yl)isoindolin-1-one] | 
7 | 100 to 500 | < 100 | 500 to 1000 | Cc1nc(-c2cc(-c3cc4c(c(S(C)(=O)=O)c3)C(=O)N([C@@H](C)C3CC3)C4)ccn2)[nH]c1C [Example 2, (S)-2-(1-Cyclopropylethyl)-5-(2-(4,5-dimethyl-1H-imidazol-2-yl)pyridin-4-yl)-7-(methylsulfonyl)isoindolin-1-one Trifluoroacetate Salt] | 
8 | 500 to 2000 | < 100 | > 1000 | Cc1[nH]c(-c2cc(-c3ccc4c(c3)CN([C@@H](C)C3CC3)C4=O)ccn2)nc1C(=O)NC(C)C [Example 3, (S)-2-(4-(2-(1-Cyclopropylethyl)-1-oxoisoindolin-5-yl)pyridin-2-yl)-N-isopropyl-5-methyl-1H-imidazole-4-carboxamide Trifluoroacetate Salt] | 
9 | > 2000 | < 100 |  | Cc1nc(-c2cc(-c3cc4c(c(S(C)(=O)=O)c3)C(=O)N([C@@H](C)C3CC3)C4)cnn2)[nH]c1C [Example 8, (S)-2-(1-Cyclopropylethyl)-5-(6-(4,5-dimethyl-1H-imidazol-2-yl)pyridazin-4-yl)-7-(methylsulfonyl)isoindolin-1-one Trifluoroacetate Salt] | 
10 | > 2000 | 500 to 2000 |  | Cc1cc(-c2cc(-c3ccc4c(c3)CN([C@@H](C)C3CC3)C4=O)cnn2)[nH]n1 [Example 11, (S)-2-(1-Cyclopropylethyl)-5-(6-(3-methyl-1H-pyrazol-5-yl)pyridazin-4-yl)isoindolin-1-one Trifluoroacetate Salt] | 
11 | > 2000 | < 100 |  | Cc1nnc(-c2cc(-c3ccc4c(c3)CN([C@@H](C)C3CC3)C4=O)ccn2)[nH]1 [Example 13, (S)-2-(1-Cyclopropylethyl)-5-(2-(5-methyl-4H-1,2,4-triazol-3-yl)pyridin-4-yl)isoindolin-1-one] | 
12 | > 2000 | < 100 |  | Cc1nc(-c2cc(-c3cc4c(c(C(O)CO)c3)C(=O)N([C@@H](C)C3CC3)C4)cnn2)[nH]c1C (stereo partly drawn) [Example 19, 2-((S)-1-Cyclopropylethyl)-7-(1,2-dihydroxyethyl)-5-(6-(4,5-dimethyl-1H-imidazol-2-yl)pyridazin-4-yl)isoindolin-1-one, Trifluoroacetate Salt] | 
13 |  |  |  | Cc1nc(-c2cc(-c3cc4c(c(S(C)(=N)=O)c3)C(=O)N([C@@H](C)C3CC3)C4)ccn2)[nH]c1C (stereo partly drawn) [Example 21, 2-((S)-1-Cyclopropylethyl)-5-(2-(4,5-dimethyl-1H-imidazol-2-yl)pyridin-4-yl)-7-(S-methylsulfonimidoyl)isoindolin-1-one] | 500 to 1000
14 |  |  |  | CN=S(C)(=O)c1cc(-c2ccnc(-c3nc(C)c(C)[nH]3)c2)cc2c1C(=O)N([C@@H](C)C1CC1)C2 (stereo partly drawn) [Example 24, 2-((S)-1-Cyclopropylethyl)-5-(2-(4,5-dimethyl-1H-imidazol-2-yl)pyridin-4-yl)-7-(N,S-dimethylsulfonimidoyl)isoindolin-1-one] | 100 to 500

Row | SMILES | IC50 (PI3Kδ (p110δ/p85α)) [nM] | IC50 (PI3Kγ (p110γ)) [nM] | IC50 [1, 2] [nM] | IC50 ([1]; serum starved THP-1 cells) [nM]
15 | Cc1nc(-c2cc(-c3cc4c(c(S(C)(=O)=O)c3)C(=O)N([C@@H](C)C3CC3)C4)ccn2)[nH]c1C(=O)NC(C)C(F)(F)F (single isomer, unassigned) [Example 7g] | 100 to 500 | < 100 |  | > 1000
16 | CCC(C)NC(=O)c1[nH]c(-c2cc(-c3cc4c(c(S(C)(=O)=O)c3)C(=O)N([C@@H](C)C3CC3)C4)ccn2)nc1C (single isomer, unassigned) [Example 7l] | 100 to 500 | < 100 |  | 100 to 500
